Measured values taken from ChEMBL document CHEMBL1134092, “alpha-Keto heterocycle inhibitors of fatty acid amide hydrolase: carbonyl group modification and alpha-substitution” (Bioorg Med Chem Lett, 2001).

target: T1, Fatty-acid amide hydrolase 1 (Rattus norvegicus, UniProt P97612); assay: Inhibitory activity against fatty acid amide hydrolase (FAAH)
T1 sequence (P97612 whole entry): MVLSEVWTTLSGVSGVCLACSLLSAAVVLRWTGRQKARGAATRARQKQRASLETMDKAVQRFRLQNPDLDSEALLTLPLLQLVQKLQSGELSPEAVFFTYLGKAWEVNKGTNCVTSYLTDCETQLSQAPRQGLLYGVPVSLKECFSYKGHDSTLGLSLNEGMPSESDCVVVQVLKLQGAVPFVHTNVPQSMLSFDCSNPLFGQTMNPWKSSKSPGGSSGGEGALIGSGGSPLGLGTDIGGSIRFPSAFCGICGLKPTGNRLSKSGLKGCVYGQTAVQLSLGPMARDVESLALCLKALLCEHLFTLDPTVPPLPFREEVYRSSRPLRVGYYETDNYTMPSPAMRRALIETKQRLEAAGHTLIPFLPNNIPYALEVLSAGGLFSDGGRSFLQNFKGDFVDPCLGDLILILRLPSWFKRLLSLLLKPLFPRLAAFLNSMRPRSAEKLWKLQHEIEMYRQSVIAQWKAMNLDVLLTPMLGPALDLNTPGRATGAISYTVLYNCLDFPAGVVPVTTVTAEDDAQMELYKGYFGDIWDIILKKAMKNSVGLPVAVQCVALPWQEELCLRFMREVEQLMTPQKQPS

Structure (SMILES)	Ki [nM]
CCCCCCCC/C=C\CCCCCCCC(=O)c1nc2ccccc2o1	150
CCCCCCCC/C=C\CCCCCCCC(=O)c1nc2ncccc2o1	2.3
CCCCCCCC/C=C\CCCCCCCC(=O)c1ncco1	100
